Reference: patent US6808877B2, “Ligands for FPR class receptors that induce a host immune response to a pathogen or inhibit HIV infection” (priority 2000, dated 2004)
“Also recorded” adds a separate entry of the source. Like-named read-outs stand apart in the source and are kept apart here.

Experiments:
CCR5 = CCR5 serine phosphorylation in monocytes (anti-phosphoserine IP, anti-CCR5 immunoblot); assay type: cell-based, human; settings: human monocytes; for serine phosphorylation of CCR5: 37° C.
Procedure: Monocytes were isolated by counter-flow elutriation from the peripheral blood of normal donors (NIH Clinical Center, Transfusion Medicine Department, Bethesda, Md.) and enriched for mononuclear cells by using counter-flow elutriation. The purity of the cell preparations was examined by morphology after cytospin, and was >90%. The cells were stimulated with different concentrations of chemokines for indicated time periods at 37° C. and lysed for 20 min on ice with periodic mixing in lysis buffer (1% Triton X-100, 20 mM, Tris-HCl pH 8.0, 137 mM NaCl, 15% glycerol, 5 mM EDTA) containing phosphatase and protease inhibitors (1 mM phenylmethylsulfonyl fluoride, 5 μg/ml aprotinin, 5 μg/ml leupeptin, 1 mM sodium orthovanadate, 1 mM EGTA). Cell lysates were precleared with 30 µl of washed Protein-A sepherose beads (Pharmacia Biotech. Piscataway, N.J.), 1 μg of polyclonal anti-phospho-serine antibody (Zymed Laboratory Inc. South San Francisco, Calif.) was added to 200 μg cell lysates diluted with 2×immunoprecipitation (IP) buffer (1×buffer contains 1%Triton X-100, 10 mM Tris-HCl pH 7.4, 137 mM NaCl, 1 mM EDTA, 1 mM EGTA, 0.2 mM sodium orthovanadate, 0.2 mM PMSF, 0.5% NP-40). The reaction mixture was incubated at 4° C. overnight under constant rocking. The immune complex was captured by adding 50 μl of washed Protein-A sepharose beads (25 μl packed beads) and incubation of the reaction mixture at 4° C. for additional 2 hours. The beads were spun down (10 seconds at 14,000 rpm), the pellets were washed 3 times with ice-cold IP buffer, resuspended in 30 μl of 2×Laemmli sample buffer (126 mM Tris-HCl, 20% Glycerol, 4% SDS, 0.005% bromophenol blue with or without addition of 1% 2-mercaptoethanol, Novex, San Diego, Calif.) and boiled for 5 min to elute the immune complex. After electrophoresis on 4-12% SDS-PAGE precast gel (Novex), the proteins were transferred to Immobilon P membranes (Millipore, Bedford, Mass.). The membranes were blocked in freshly prepared PBS containing 3% dry milk 2 h, then were incubated with 1 μg/ml of polyclonal anti-CCR5 antibody (Millenium Biotechnology, Ramona, Calif.) overnight at 4° C. followed by washing 3 times with PBS containing 0.05% Tween 20. The membranes were incubated with a horse radish-peroxidase conjugated goat anti-rabbit IgG (1:5000) (Sigma, St. Louis, Mo.) in PBS containing 3% dry milk for 1 hour at room temperature with agitation. After washing 3 times with PBS-0.05% Tween 20, the membranes were incubated with Super Signal Chemiluminescent Substrate Stable Peroxide Solution (Pierce, Rockford, Ill.) for 1 min, and exposed to BIOMAX-MR film (Eastman Kodak Company, Rochester, N.Y.).
Monocytes stimulated with different concentrations of stimulants for indicated time periods at 37° C. were lysed for 20 min on ice with periodic mixing in lysis buffer [1% Triton X-100, 20 mM Tris-HCl (pH 8.0), 137 mM NaCl, 15% glycerol, 5 mM EDTA] containing phosphatase and protease inhibitors (1 mM phenylmethylsulfonyl fluoride, 5 μg/ml aprotinin, 5 μg/ml leupeptin, 1 mM sodium orthovanadate, 1 mM EGTA). Cell lysates were precleaned with 30 μl of washed Protein A Sepharose beads (15 μl packed beads) at 4° C. for 1 hour and 1 μg of polyclonal anti-phosphoserine antibody was added to 200 μg cell lysates diluted with 2×immunoprecipitation (IP) buffer [1×: 1% Triton X-100, 10 mM Tris-HCl (pH 7.4), 137 mM NaCl, 1 mM EDTA, 1 mM EGTA, 0.2 mM […], 0.2 mM PMSF, 0.5% NP-40]. The reaction mixture was incubated at 4° C. overnight under constant rocking. The immunecomplex was captured by adding 50 μl of washed Protein A sepharose beads (25 μl packed beads) and incubating the reaction mixture at 4° C. for an additional 2 hours. […]

monocytes = assay: Ca2+ mobilization in monocytes (Fura-2); assay type: cell-based, human
Procedure: (§1) Calcium mobilization was measured by incubating 2×10^7/ml cells in loading medium (DMEM, 10% FBS) with 5 μM Fura-2 AM (Molecular Probes, Eugene, Oreg.) for 30 min at room temperature in the dark. The dye-loaded cells were washed 3 times with loading medium and resuspended in saline buffer [138 mM NaCl, 6 mM KCl, 1 mM CaCl2, 10 mM HEPES (pH 7.4), 5 mM Glucose, 0.1% BSA] at a concentration of 1×10^6/ml. The cells were then transferred into quartz cuvettes (2 ml) which were placed in a luminescence spectrometer (LS-50B, Perkin-Elmer, Beaconsfield, England). Stimulants at different concentrations were added in a volume of 20 μl to each cuvette at the indicated time points. The ratio of fluorescence at 340 and 380 nm wavelength was calculated using a FL WinLab program (Perkin-Elmer).
(§2) Calcium mobilization was assayed by incubating 2×10^7/ml of monocytes, neutrophils, FPRL1 or FPR transfectants in loading buffer containing 138 mM NaCl, 6 mM KCl, 1 mM CaCl2, 10 mM HEPES (pH 7.4), 5 mM glucose, 0.1% BSA with 5 μM Fura-2 (Sigma) at 37° C. for 30 min. The dye-loaded cells were washed and resuspended in fresh loading buffer. The cells were then transferred into quartz cuvettes (10^6 cells in 2 ml) which were placed in a luminescence spectrometer LS50 B (Perkin-Elmer Limited, Beaconsfield, England). Stimulants at different concentrations were added in a volume of 20 μl to the cuvettes at indicated time points. The ratio of fluorescence at 340 and 380 nm wavelength was calculated using the FL WinLab program (Perkin-Elmer).

neutrophils = assay: Ca2+ mobilization in neutrophils (Fura-2); assay type: cell-based, human
Procedure: as §1, §2

FPRL1 [1] = target: T1, FPRL1 (Homo sapiens, UniProt P25090); assay type: cell-based
T1 construct: expressed in transfected cells; host or cells: HEK 293
T1 sequence (P25090 1-351): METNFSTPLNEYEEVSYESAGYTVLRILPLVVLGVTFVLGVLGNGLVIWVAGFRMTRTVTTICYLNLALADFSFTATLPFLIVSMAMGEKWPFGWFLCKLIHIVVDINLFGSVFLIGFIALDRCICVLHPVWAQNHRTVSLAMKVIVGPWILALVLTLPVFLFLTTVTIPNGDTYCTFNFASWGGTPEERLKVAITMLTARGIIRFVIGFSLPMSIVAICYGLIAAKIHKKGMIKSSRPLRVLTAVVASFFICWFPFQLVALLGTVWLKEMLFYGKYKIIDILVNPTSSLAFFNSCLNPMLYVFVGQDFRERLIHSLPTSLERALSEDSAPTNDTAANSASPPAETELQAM

FPRL1 [2] = target: T1, FPRL1; assay: Ca2+ mobilization in FPRL1/293 cells; assay type: cell-based
Procedure: as §1, §2

[3] = concentrations in the micromolar range
[4] = high concentration of fMLP (1 μM), V3 1.5 μM

Compound: TRPNYNKRKRIHIGPGRAFYTTKNIIGTIRQAH-NH2 [V3 peptide]
- time of maximal CCR5 phosphorylation (CCR5): 15 min
- serine phosphorylation of CCR5 (CCR5): induced significant serine phosphorylation of CCR5
- Ca2+ mobilization (monocytes): mobilized Ca^2+
- attenuation of the cell response to chemokines including SDF-1α on sequential stimulation (monocytes; V3 peptide 1.5 μM): did not, however, attenuate
- Ca2+ mobilization (neutrophils): mobilized Ca^2+
- migration / chemotaxis (FPRL1 [1]; FPRL1/293 cells): induced both Ca^2+ mobilization and chemotaxis
- Ca2+ mobilization (FPRL1 [2]; HEK293 cells transfected to express FPRL1): induced both Ca^2+ mobilization and chemotaxis

Compound: CSCC[C@H](NC=O)C(=O)N[C@@H](CC(C)C)C(=O)N[C@@H](Cc1ccccc1)C(=O)O [fMLP, N-formyl-methionyl-leucyl-phenylalanine]
- time to increase in CCR5 phosphorylation after stimulation (CCR5): ≤ 1 min
- serine phosphorylation of CCR5 (CCR5): increased level of CCR5 phosphorylation; also recorded: induced CCR5 phosphorylation
- response to W peptide (Ca2+ flux) (monocytes; [3]): significantly attenuated
- signaling of V3 peptide on cross-desensitization (monocytes; [4]): attenuated
- effect on W peptide-induced Ca2+ flux (monocytes; low concentrations (nM range)): limited effect
- response to W peptide (Ca2+ flux) (neutrophils; [3]): significantly attenuated
- signaling of V3 peptide on cross-desensitization (neutrophils; [4]): attenuated
- effect on W peptide-induced Ca2+ flux (neutrophils; low concentrations (nM range)): limited effect
- migration / chemotaxis (FPRL1 [1]): failed to migrate
- excess required to desensitize the effect of W peptide (Ca2+ flux) (FPRL1 [2]; FPRL1/293 cells): 10^5 fold excess
- minimal effective concentration to induce Ca2+ mobilization (FPRL1 [2]; FPRL1/293 cells, given as range in words): μM range
